Laboratory results from ChEMBL document CHEMBL2203282, “1,4-naphthoquinone cations as antiplasmodial agents: hydroxy-, acyloxy-, and alkoxy-substituted analogues” (ACS Med Chem Lett, 2012).
pIC50: −log10 of the molar value.

test system: Plasmodium falciparum; test: Antiplasmodial activity against chloroquine-resistant Plasmodium falciparum W2 infected in human erythrocytes assessed as reduction in parasitemia after 48 hrs by flow cytometry analysis; format: functional, organism-based; conditions: W2, 48 h

Compound	pIC50
CCCCCCCCCCC1=C(C)C(=O)c2ccccc2C1=O	< 5.00
CC(=O)OC1=C(CCCCC[P+](c2ccccc2)(c2ccccc2)c2ccccc2)C(=O)c2ccccc2C1=O	5.72
CCCCCCCCCCC1=C(OC(C)=O)C(=O)c2ccccc2C1=O	6.41
CCCCCCCCCCC1=C(O)C(=O)c2ccccc2C1=O	6.47
CC1=C(OC(=O)CCC[P+](c2ccccc2)(c2ccccc2)c2ccccc2)C(=O)c2ccccc2C1=O	5.34
CC1=C(OC(=O)CCCCCCCCCC[P+](c2ccccc2)(c2ccccc2)c2ccccc2)C(=O)c2ccccc2C1=O	5.86
CC1=C(OCC(=O)OCCC[P+](c2ccccc2)(c2ccccc2)c2ccccc2)C(=O)c2ccccc2C1=O	5.91
CC1=C(OCCCCCCCCCC[P+](c2ccccc2)(c2ccccc2)c2ccccc2)C(=O)c2ccccc2C1=O	6.92
CC1=C(OCCCCCC[P+](c2ccccc2)(c2ccccc2)c2ccccc2)C(=O)c2ccccc2C1=O	7.37
CC1=C(OCCC[P+](c2ccccc2)(c2ccccc2)c2ccccc2)C(=O)c2ccccc2C1=O	7.38
O=C1C=C(OCCC[P+](c2ccccc2)(c2ccccc2)c2ccccc2)C(=O)c2ccccc21	7.40
O=C1C=C(OCCCCCC[P+](c2ccccc2)(c2ccccc2)c2ccccc2)C(=O)c2ccccc21	7.55
O=C1C(Cc2ccc(Cl)cc2)=C(OCCCCCC[P+](c2ccccc2)(c2ccccc2)c2ccccc2)C(=O)c2ccccc21	7.31
O=C1C(Cc2ccccc2)=C(OCCCCCC[P+](c2ccccc2)(c2ccccc2)c2ccccc2)C(=O)c2ccccc21	7.31
O=C1C(OCCCCCC[P+](c2ccccc2)(c2ccccc2)c2ccccc2)=C(C2CCCCC2)C(=O)c2ccccc21	7.32
O=C1C(Cc2ccccc2)=C(OCCC[P+](c2ccccc2)(c2ccccc2)c2ccccc2)C(=O)c2ccccc21	7.33

Compound	pIC50
O=C1C(OCCC[P+](c2ccccc2)(c2ccccc2)c2ccccc2)=C(C2CCCCC2)C(=O)c2ccccc21	7.37
COc1ccc(C2=C(OCCC[P+](c3ccccc3)(c3ccccc3)c3ccccc3)C(=O)c3ccccc3C2=O)cc1	7.76
CC1=C(OCCC[n+]2ccccc2)C(=O)c2ccccc2C1=O	6.78
CC1=C(OCCC[n+]2ccn(C)c2)C(=O)c2ccccc2C1=O	6.78
CC(=O)OC1=C(c2ccc(OCCCCCCCCCC[P+](c3ccccc3)(c3ccccc3)c3ccccc3)cc2)C(=O)c2ccccc2C1=O	5.15
O=C1C(O)=C(c2ccc(OCCC[P+](c3ccccc3)(c3ccccc3)c3ccccc3)cc2)C(=O)c2ccccc21	5.17
O=C1C(O)=C(c2ccc(OCCCCCCCCCC[P+](c3ccccc3)(c3ccccc3)c3ccccc3)cc2)C(=O)c2ccccc21	5.18
CC(=O)OC1=C(c2ccc(OCCCC[P+](c3ccccc3)(c3ccccc3)c3ccccc3)cc2)C(=O)c2ccccc2C1=O	5.26
O=C1C(O)=C(CCCCC[P+](c2ccccc2)(c2ccccc2)c2ccccc2)C(=O)c2ccccc21	5.39
CCCC[P+](CCCC)(CCCC)CCCCCCCCCCC1=C(O)C(=O)c2ccccc2C1=O	5.41
CC(=O)OC1=C(CCCCCCCCCC[P+](c2ccccc2)(c2ccccc2)c2ccccc2)C(=O)c2ccccc2C1=O	5.44
O=C1C(O)=C(CCCCCCCCCC[P+](Cc2ccccc2)(Cc2ccccc2)Cc2ccccc2)C(=O)c2ccccc21	5.48
O=C1C(O)=C(CCCCCCCCCC[P+](c2ccccc2)(c2ccccc2)c2ccccc2)C(=O)c2ccccc21	5.66
C[C@@H]1CC[C@H]2[C@@H](C)C(=O)O[C@@H]3O[C@@]4(C)CC[C@@H]1[C@]32OO4 [ARTEMISININ]	7.74
O=C1C(O)=C([C@H]2CC[C@H](c3ccc(Cl)cc3)CC2)C(=O)c2ccccc21 [ATOVAQUONE]	9.30
